This is an account of results in patent US11613525B2 (CTXT PTY LIMITED, priority 2018, dated 2023).

Read-outs that look alike come from different tables or passages of the source.

In experiment [1] the target is T1, human STING (HAQ) (Homo sapiens, UniProt Q86WV6, G230A/H232R/R293Q). Description: SPR (HAQ) 8° C. It is filed as binding. The settings on record: 50% occupancy as surrogate KD, read-out: SPR huSTING (HAQ) KD at 8° C. The text has this: (§1) Binding interactions of ligands with STING proteins were quantified using Surface Plasmon Resonance (SPR) with a minimally biotinylated STING protein immobilized on Streptavidin chip surface.
T1 sequence (Q86WV6 whole entry G230A/H232R/R293Q, looked up): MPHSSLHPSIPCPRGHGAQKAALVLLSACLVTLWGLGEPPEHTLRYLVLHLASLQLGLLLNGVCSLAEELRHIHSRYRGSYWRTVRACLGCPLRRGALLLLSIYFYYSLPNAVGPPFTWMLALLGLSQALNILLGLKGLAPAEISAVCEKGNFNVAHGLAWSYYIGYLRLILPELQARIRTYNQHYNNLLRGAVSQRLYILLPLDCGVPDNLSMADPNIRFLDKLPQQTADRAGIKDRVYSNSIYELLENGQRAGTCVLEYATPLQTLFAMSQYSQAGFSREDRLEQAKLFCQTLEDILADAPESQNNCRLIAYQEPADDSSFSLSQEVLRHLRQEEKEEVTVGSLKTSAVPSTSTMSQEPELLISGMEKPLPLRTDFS
(§2) These were modified for compounds with longer residence times, so that curves could reach steady-state, or so that compound would be fully dissociated before the subsequent injection.
(§3) For single-cycle kinetic experiments, sensorgrams were fit to a two-step kinetic model in which two analyte molecules bind sequentially (Biacore T200 or S200 Evaluation Software).

Experiment [2] concerns the target T1, human STING (HAQ). The experiment in a line: biochemical. It is filed as binding.
In experiment [3] the target is T2, huSTING (WT) (Homo sapiens (Human), UniProt Q86WV6, H232R). The experiment in a line: THP-1 reporter cell line assay, THP-1-Dual KI-hSTING-R232 cells. The settings on record: read-out: Cellular EC50 huSTING (WT). It is filed as cell-based.
Target sequence in this assay (Q86WV6 whole entry H232R): as the sequence (Q86WV6 whole entry G230A/H232R/R293Q, looked up) above, with A230G, Q293R counted along it
Experiment [4] addresses T2, huSTING (WT). Description: SPR (WT) 8° C. It is filed as binding. The settings on record: read-out: SPR huSTING (WT) KD at 8° C.
Description: as §1, §2, §3
Target sequence in this assay (Q86WV6 other isoform, or with tags, fused parts or gaps, stated change not applied): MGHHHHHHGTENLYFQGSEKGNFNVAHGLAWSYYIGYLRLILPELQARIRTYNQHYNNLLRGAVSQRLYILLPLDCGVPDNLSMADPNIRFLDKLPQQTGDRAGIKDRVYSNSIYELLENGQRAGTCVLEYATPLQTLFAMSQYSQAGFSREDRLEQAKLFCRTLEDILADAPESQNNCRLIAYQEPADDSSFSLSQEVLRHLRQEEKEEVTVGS

In experiment [5] the target is huSTING (HAQ) (Homo sapiens (Human), UniProt Q86WV6, G230A/H232R/R293Q/R71H). The experiment in a line: THP-1 reporter cell line assay, THP-1 STING Lucia ISG cells. Type of experiment: cell-based. Particulars: THP-1 STING Lucia ISG cells, read-out: Cellular EC50 huSTING (HAQ).
Sequence of huSTING (HAQ) (Q86WV6 whole entry R71H/G230A/H232R/R293Q): as the sequence (Q86WV6 whole entry G230A/H232R/R293Q, looked up) above, with R71H counted along it
In experiment [6] the target is T1, human STING (HAQ). The settings on record: read-out: SPR (HAQ) KD; 25° C.
For experiment [7], the target named is T2, huSTING (WT). Description: Differential scanning fluorimetry (DSF), huSTING (WT). Type of experiment: binding. Particulars: read-out: DSF huSTING (WT) ΔTm (° C.). In general terms: Differential scanning fluorimetry follows unfolding on heating by fluorescence.
Target sequence in this assay (Q86WV6 other isoform, or with tags, fused parts or gaps, stated change not applied): as the sequence (Q86WV6 other isoform, or with tags, fused parts or gaps, stated change not applied) above
[8] abbreviates: compound 100 μM, protein concentration 2 μM.
Setting [9] is: modified method, top concentration 40 μM, pin tool, EnVision.
Where [10] appears, read: 1 μM protein, compound at 100 μM.

Broadly, the Kd is the constant that tells how readily two partners part at equilibrium. A word on the EC50: it is the concentration needed to bring the measured effect to its halfway point. On to `COc1ncnc2sc(C(=O)O)c(COc3c(F)cc(C(N)=O)cc3F)c12` [Example 109, 5-((4-Carbamoyl-2,6-difluorophenoxy)methyl)-4-methoxythieno[2,3-d]pyrimidine-6-carboxylic acid], for which the equilibrium dissociation constant (Kd) in experiment [1] was found to be 160 µM; in experiment [4], 200 µM. Further, the “DSF huSTING (HAQ) ΔTm (° C.)” value in experiment [2] (setting [8]) was found to be 8.60 °C. Also, the concentration giving a half-maximal response (EC50) in experiment [3] and in experiment [5] (setting [9]) was over 40 µM throughout.
Take `COCc1cc(OCc2c(C(=O)O)sc3cccc(Cl)c23)ccc1C(N)=O` [Example 113, 3-((4-Carbamoyl-3-(methoxymethyl)phenoxy)methyl)-4-chlorobenzo[b]thiophene-2-carboxylic acid]: the dissociation constant Kd in experiment [1] came out at 52 µM. Besides, the “DSF huSTING (HAQ) ΔTm (° C.)” value in experiment [2] (setting [8]) was found to be 5.60 °C. For the same compound, the 50% effective concentration (EC50) in experiment [3] and in experiment [5] (setting [9]) was over 40 µM in each case.
The ΔTm is the change in melting temperature against a reference sample. Take `NC(=O)c1ccc(OCc2c(C(=O)O)sc3cccc(Br)c23)cc1` [Example 22, 4-Bromo-3-((4-carbamoylphenoxy)methyl)benzo[b]thiophene-2-carboxylic acid]: the equilibrium dissociation constant (Kd) in experiment [6] came to 0.755 µM. The shift in melting temperature (ΔTm) at 100 µM in experiment [7] amounted to 7.61 °C. Moreover, the “DSF huSTING (HAQ) ΔTm (° C.)” value in experiment [2] (setting [10]) amounted to 17.08 °C. Moreover, the EC50 in experiment [3] was 41 µM; in experiment [5] (24 h, top concentration 50 μM) it was over 50 µM.
Turning to `Cc1ccc2sc(C(=O)O)c(COc3ccc(C(N)=O)cc3)c2c1Cl` [Example 18, 3-((4-Carbamoylphenoxy)methyl)-4-chloro-5-methylbenzo[b]thiophene-2-carboxylic acid], in experiment [6], the Kd came to 15.9 µM. In addition, the ΔTm at 100 µM in experiment [7] is -0.6 °C. The “DSF huSTING (HAQ) ΔTm (° C.)” value in experiment [2] (setting [10]) is 6.29 °C. The concentration giving a half-maximal response (EC50) in experiment [3] is over 50 µM; in experiment [5] (24 h, top concentration 50 μM) it was over 50 µM.
As to `NC(=O)c1ccc(OCc2c(C(=O)O)sc3cccc(C(F)(F)F)c23)cc1` [Example 36, 3-((4-Carbamoylphenoxy)methyl)-4-(trifluoromethyl)benzo[b]thiophene-2-carboxylic acid], in experiment [6], the Kd was found to be 1.33 µM. Moreover, the ΔTm at 100 µM in experiment [7] was 5.96 °C. Also, the “DSF huSTING (HAQ) ΔTm (° C.)” value in experiment [2] (setting [10]) came out at 12.31 °C. The EC50 in experiment [3] was over 50 µM; in experiment [5] (24 h, top concentration 50 μM) it was over 50 µM.
For the compound `COc1cccc2sc(C(=O)O)c(COc3ccc(C(N)=O)cc3)c12` [Example 34, 3-((4-Carbamoylphenoxy)methyl)-4-methoxybenzo[b]thiophene-2-carboxylic acid], in experiment [6], the Kd was determined as 2.48 µM. The thermal shift (ΔTm) at 100 µM in experiment [7] came out at 3.76 °C. Besides, in experiment [2] (setting [10]), the “DSF huSTING (HAQ) ΔTm (° C.)” value was determined as 10.07 °C. In addition, the EC50 was over 50 µM in experiment [3] and over 50 µM in experiment [5] (24 h, top concentration 50 μM).
Turning to `NC(=O)c1cc(F)c(OCc2c(C(=O)O)sc3cncc(Cl)c23)c(F)c1` [Example 171, Lithium 3-((4-carbamoyl-2,6-difluorophenoxy)methyl)-4-chlorothieno[2,3-c]pyridine-2-carboxylate], in experiment [1], the Kd turned out to be 4.87 µM. For the same compound, in experiment [2] (setting [8]), the “DSF huSTING (HAQ) ΔTm (° C.)” value was found to be 9.33 °C. Besides, the EC50 in experiment [3] and in experiment [5] (setting [9]) was over 40 µM each time.
For the compound `NC(=O)c1ccc(OCc2c(C(=O)O)sc3cccc(Cl)c23)cc1F` [Example 26, 3-((4-Carbamoyl-3-fluorophenoxy)methyl)-4-chlorobenzo[b]thiophene-2-carboxylic acid], in experiment [6], the Kd came out at 1.6 µM. The shift in melting temperature (ΔTm) at 100 µM in experiment [7] was 3.79 °C. In addition, the “DSF huSTING (HAQ) ΔTm (° C.)” value in experiment [2] (setting [10]) turned out to be 10.82 °C. In addition, the 50% effective concentration (EC50) in experiment [3] is over 50 µM; in experiment [5] (24 h, top concentration 50 μM), over 50 µM.
For the compound `NC(=O)c1ccc(OCc2c(C(=O)O)sc3cccc(F)c23)c(F)c1` [Example 59, 3-((4-carbamoyl-2-fluorophenoxy)methyl)-4-fluorobenzo[b]thiophene-2-carboxylic acid], the dissociation constant Kd in experiment [6] amounted to 15.2 µM. The ΔTm at 100 µM in experiment [7] was 0.54 °C. The “DSF huSTING (HAQ) ΔTm (° C.)” value in experiment [2] (setting [10]) was determined as 7.31 °C. Besides, the concentration for a half-maximal effect (EC50) in experiment [3] was over 50 µM; in experiment [5] (24 h, top concentration 50 μM), over 50 µM.
As for `NC(=O)c1cc(F)c(OCc2c(C(=O)O)sc3cccc(Cl)c23)c(Br)c1` [Example 71, 3-((2-Bromo-4-carbamoyl-6-fluorophenoxy)methyl)-4-chlorobenzo[b]thiophene-2-carboxylic acid], the Kd in experiment [6] was 2.12 µM. Moreover, the ΔTm at 100 µM in experiment [7] amounted to 5.11 °C. In experiment [2] (setting [10]), the “DSF huSTING (HAQ) ΔTm (° C.)” value is 12.18 °C. Further, the half-maximal effective concentration (EC50) is 40.4 µM in experiment [3] and 21.4 µM in experiment [5] (24 h, top concentration 50 μM).
`NC(=O)c1ccc(OCc2c(C(=O)O)sc3cc(F)cc(F)c23)cc1` [Example 32, 3-((4-Carbamoylphenoxy)methyl)-4,6-difluorobenzo[b]thiophene-2-carboxylic acid]: in experiment [6], the Kd is 7.75 µM. Moreover, in experiment [7], the thermal shift (ΔTm) at 100 µM turned out to be 0.63 °C. Also, the “DSF huSTING (HAQ) ΔTm (° C.)” value in experiment [2] (setting [10]) worked out at 7.23 °C. Also, the concentration for a half-maximal effect (EC50) was over 50 µM in experiment [3] and over 50 µM in experiment [5] (24 h, top concentration 50 μM).
As for `NC(=O)c1ccc(OCc2c(C(=O)O)sc3cc(Cl)cc(F)c23)cc1` [Example 20, 3-((4-Carbamoylphenoxy)methyl)-6-chloro-4-fluorobenzo[b]thiophene-2-carboxylic acid], in experiment [6], the Kd was 34 µM. Also, the ΔTm at 100 µM in experiment [7] is -2.76 °C. Also, the “DSF huSTING (HAQ) ΔTm (° C.)” value in experiment [2] (setting [10]) is 5.83 °C. In addition, the EC50 in experiment [3] is over 50 µM; in experiment [5] (24 h, top concentration 50 μM) it was over 50 µM.
As to `NC(=O)c1ccc(OCc2c(C(=O)O)sc3ccc(Cl)cc23)cc1` [Example 14, 3-((4-Carbamoylphenoxy)methyl)-5-chlorobenzo[b]thiophene-2-carboxylic acid], in experiment [6], the dissociation constant (Kd) was determined as 120 µM. Besides, the ΔTm at 100 µM in experiment [7] was -4.26 °C. Also, the “DSF huSTING (HAQ) ΔTm (° C.)” value in experiment [2] (setting [10]) was 0.09 °C. Also, the EC50 in experiment [3] is over 50 µM; in experiment [5] (24 h, top concentration 50 μM), over 50 µM.
As to `COc1nccc2sc(C(=O)O)c(COc3c(F)cc(C(N)=O)cc3CO)c12` [Example 172, 3-((4-Carbamoyl-2-fluoro-6-(hydroxymethyl)phenoxy)methyl)-4-methoxythieno[3,2-c]pyridine-2-carboxylic acid], in experiment [1], the Kd is 220 µM. In experiment [2] (setting [8]), the “DSF huSTING (HAQ) ΔTm (° C.)” value is 0.56 °C. The concentration for a half-maximal effect (EC50) in experiment [3] and in experiment [5] (setting [9]) was over 40 µM each time.
With `NC(=O)c1ccc(OCc2c(C(=O)O)sc3cccc(F)c23)cc1Cl` [Example 50, 3-((4-Carbamoyl-3-chlorophenoxy)methyl)-4-fluorobenzo[b]thiophene-2-carboxylic acid], in experiment [6], the dissociation constant (Kd) turned out to be 20.9 µM. In experiment [7], the ΔTm at 100 µM came to 0.02 °C. For the same compound, in experiment [2] (setting [10]), the “DSF huSTING (HAQ) ΔTm (° C.)” value stood at 5.11 °C. Also, the EC50 in experiment [3] was over 50 µM; in experiment [5] (24 h, top concentration 50 μM), over 50 µM.
As for `NC(=O)c1ccc(OCc2c(C(=O)O)sc3cccc(C4CC4)c23)cc1` [Example 61, 3-((4-Carbamoylphenoxy)methyl)-4-cyclopropylbenzo[b]thiophene-2-carboxylic acid], the Kd in experiment [6] was 0.83 µM. For the same compound, the ΔTm at 100 µM in experiment [7] was determined as 5.68 °C. Besides, in experiment [2] (setting [10]), the “DSF huSTING (HAQ) ΔTm (° C.)” value came out at 14.62 °C. Besides, the EC50 was over 50 µM in experiment [3] and 39.6 µM in experiment [5] (24 h, top concentration 50 μM).
As for `NC(=O)c1ccc(OCc2c(C(=O)O)sc3ccccc23)cc1` [Example 6, 3-((4-Carbamoylphenoxy)methyl)benzo[b]thiophene-2-carboxylic acid], in experiment [6], the Kd is 90 µM. Also, in experiment [7], the ΔTm at 100 µM was -1.15 °C. Also, the “DSF huSTING (HAQ) ΔTm (° C.)” value in experiment [2] (setting [10]) amounted to 3.33 °C. Besides, the EC50 in experiment [3] was over 50 µM; in experiment [5] (24 h, top concentration 50 μM), over 50 µM.
Consider `Cc1cc(OCc2c(C(=O)O)sc3cccc(F)c23)ccc1C(N)=O` [Example 54, 3-((4-Carbamoyl-3-methylphenoxy)methyl)-4-fluorobenzo[b]thiophene-2-carboxylic acid], for which, in experiment [6], the Kd turned out to be 51 µM. Also, the ΔTm at 100 µM in experiment [7] is -1.28 °C. Further, the “DSF huSTING (HAQ) ΔTm (° C.)” value in experiment [2] (setting [10]) was determined as 2.56 °C. For the same compound, the EC50 was over 50 µM in experiment [3] and over 50 µM in experiment [5] (24 h, top concentration 50 μM).
Turning to `NC(=O)c1ccc(OCc2c(C(=O)O)sc3cccnc23)cc1` [Example 24, 3-((4-Carbamoylphenoxy)methyl)thieno[3,2-b]pyridine-2-carboxylic acid], the Kd in experiment [6] was over 10000 µM. Moreover, the thermal shift (ΔTm) at 100 µM in experiment [7] is -0.35 °C; in experiment [2] (read-out: DSF huSTING (HAQ) ΔTm (° C.)), 0.6 °C. Moreover, the EC50 was over 50 µM in experiment [3] and over 50 µM in experiment [5] (24 h, top concentration 50 μM).
